# From publication PMC4445146 (European journal of medicinal chemistry, 2014)
# Assays:
# [1] = target: Mcl-1/Bim (Homo sapiens, UniProt Q07820); experiment: ELISA, disruption of Mcl-1/Bim binding; conditions: for IC50: read-out: Mcl-1/Bim IC50, ELISA, average ± SEM, n ≥ 3; for fold more potent than 1 against Mcl-1/Bim: ELISA IC50 relative to (±)-marinopyrrole A (1)
# [2] = target: Bcl-xL/Bim (Homo sapiens, UniProt Q07817); experiment: ELISA, disruption of Bcl-xL/Bim binding; conditions: for IC50: read-out: Bcl-xL/Bim IC50, ELISA, average ± SEM, n ≥ 3; for fold more potent than 1 against Bcl-xL/Bim: ELISA IC50 relative to (±)-marinopyrrole A (1); for selectivity for Bcl-xL over Mcl-1: ratio of ELISA IC50 values
# Chain of Bcl-xL/Bim (Q07817 whole entry): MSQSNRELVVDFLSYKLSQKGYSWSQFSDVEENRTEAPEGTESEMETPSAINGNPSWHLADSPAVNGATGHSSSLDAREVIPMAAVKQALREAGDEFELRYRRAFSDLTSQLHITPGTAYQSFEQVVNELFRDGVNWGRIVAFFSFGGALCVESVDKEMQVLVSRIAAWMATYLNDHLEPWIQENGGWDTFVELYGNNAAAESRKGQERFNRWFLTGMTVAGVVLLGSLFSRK
# [3] = test system: MDA-MB-468 breast cancer cells; format: cell-based, human; conditions: MDA-MB-468 cells; for decrease of Mcl-1 levels and caspase 3 cleavage: concentrations as high as 10 μM (data not shown); for decrease of Mcl-1 levels and induction of apoptosis (caspase 3 activation): 3 μM, western blot
# Chain of Mcl-1/Bim (Q07820 whole entry): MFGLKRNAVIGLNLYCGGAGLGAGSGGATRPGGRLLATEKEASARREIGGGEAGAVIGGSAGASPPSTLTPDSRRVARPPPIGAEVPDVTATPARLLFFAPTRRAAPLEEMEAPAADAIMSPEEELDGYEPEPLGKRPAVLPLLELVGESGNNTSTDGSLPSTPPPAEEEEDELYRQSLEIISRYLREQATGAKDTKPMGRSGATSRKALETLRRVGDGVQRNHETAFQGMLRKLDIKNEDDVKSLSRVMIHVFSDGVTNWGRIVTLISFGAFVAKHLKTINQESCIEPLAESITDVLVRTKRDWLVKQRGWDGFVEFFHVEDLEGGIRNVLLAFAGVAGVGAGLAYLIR
Compound,IC50 [1],decrease of Mcl-1 levels and induction of apoptosis (caspase 3 activation) [3],also measured
"Cc1cc(O)c(C(=O)c2[nH]c(Cl)c(Cl)c2-n2c(C(=O)c3cc(Cl)c(C)cc3O)cc(Cl)c2Cl)cc1Cl [compound 24, (4,4′,5,5′-Tetrachloro-1′H-1,3′-bipyrrole-2,2′-diyl)bis((5-chloro-2-hydroxy-4-methylphenyl)methanone)]",2.6 ± 0.6 µM,,IC50 [2]: 2.5 ± 0.4 µM
O=C(c1ccc(OS(=O)(=O)C(F)(F)F)cc1O)c1[nH]c(Cl)c(Cl)c1-n1c(C(=O)c2ccccc2O)cc(Cl)c1Cl [compound 28],,,fold more potent than 1 against Mcl-1/Bim [1]: nine; fold more potent than 1 against Bcl-xL/Bim [2]: eight
"O=C(O)Cn1cc(-c2cc(O)c(C(=O)c3[nH]c(Cl)c(Cl)c3-n3c(C(=O)c4cc(Cl)c(-c5cn(CC(=O)O)nn5)cc4O)cc(Cl)c3Cl)cc2Cl)nn1 [compound 38, 2,2′-(4,4′-((4,4′,5,5′-Tetrachloro-1′H-1,3′-bipyrrole-2,2′-dicarbonyl)bis(2-chloro-5-hydroxy-4,1-phenylene))bis(1H-1,2,3-triazole-4,1-diyl))diacetic acid]",5.2 ± 0.8 µM,,decrease of Mcl-1 levels and caspase 3 cleavage [3]: inactive at decreasing Mcl-1 levels and at inducing caspase 3 cleavage
"O=C(O)Cn1cc(-c2ccc(C(=O)c3[nH]c(Cl)c(Cl)c3-n3c(C(=O)c4ccc(-c5cn(CC(=O)O)nn5)cc4O)cc(Cl)c3Cl)c(O)c2)nn1 [compound 45, 2,2′-(4,4′-((4,4′,5,5′-Tetrachloro-1′H-1,3′-bipyrrole-2,2′-dicarbonyl)bis(3-hydroxy-4,1-phenylene))bis(1H-1,2,3-triazole-4,1-diyl))diacetic acid]",16.5 ± 1.9 µM,,
O=C(c1ccc(O)cc1O)c1[nH]c(Cl)c(Cl)c1-n1c(C(=O)c2ccc(O)cc2O)cc(Cl)c1Cl [compound 29],,,decrease of Mcl-1 levels and caspase 3 cleavage [3]: inactive at decreasing Mcl-1 levels and at inducing caspase 3 cleavage
"Cn1c(Cl)c(Cl)c(-n2c(C(=O)c3ccccc3O)cc(Cl)c2Cl)c1C(=O)c1ccccc1O [compound 54, (4,4′,5,5′-tetrachloro-1′-methyl-1′H-[1,3′-bipyrrole]-2,2′-diyl)bis((2-hydroxyphenyl)methanone)]",,,selectivity for Bcl-xL over Mcl-1 [2]: selectivity for Bcl-xL/Bim over Mcl-/Bim
"CC(C)(C)OC(=O)Cn1cc(-c2cc(O)c(C(=O)c3[nH]c(Cl)c(Cl)c3-n3c(C(=O)c4cc(Cl)c(-c5cn(CC(=O)OC(C)(C)C)nn5)cc4O)cc(Cl)c3Cl)cc2Cl)nn1 [compound 37, Di-tert-butyl 2,2′-(4,4′-((4,4′,5,5′-tetrachloro-1′H-1,3′-bipyrrole-2,2′-dicarbonyl)bis(2-chloro-5-hydroxy-4,1-phenylene))bis(1H-1,2,3-triazole-4,1-diyl))diacetate]",,little activity in intact cells,
O=C(c1ccccc1O)c1[nH]c(Cl)c(Cl)c1-n1c(C(=O)c2c(O)cccc2F)cc(Cl)c1Cl [compound 52],,not active in intact cells,
"CCc1ccc(C(=O)c2[nH]c(Cl)c(Cl)c2-n2c(C(=O)c3ccc(CC)cc3O)cc(Cl)c2Cl)c(O)c1 [compound 27, (4,4′,5,5′-Tetrachloro-1′H-1,3′-bipyrrole-2,2′-diyl)bis((4-ethyl-2-hydroxyphenyl)methanone)]",2.1 ± 0.5 µM,,IC50 [2]: 3.9 ± 1.3 µM
O=C(c1ccc(-c2cn(-c3ccccc3)nn2)cc1O)c1[nH]c(Cl)c(Cl)c1-n1c(C(=O)c2ccc(-c3cn(-c4ccccc4)nn3)cc2O)cc(Cl)c1Cl [compound 40],,little activity in intact cells,selectivity for Bcl-xL over Mcl-1 [2]: 2 fold
"(4,4′,5,5′-Tetrachloro-1′H-1,3′-bipyrrole-2,2′-diyl)bis((2-hydroxy-4-(1-octyl-1H-1,2,3-triazol-5-yl)phenyl)methanone) [compound 42]",0.6 ± 0.3 µM,little activity in intact cells,fold more potent than 1 against Mcl-1/Bim [1]: 15 fold; fold more potent than 1 against Bcl-xL/Bim [2]: 33 fold; IC50 [2]: 0.5 ± 0.1 µM
CCOC(=O)CSc1ccc(C(=O)c2[nH]c(Cl)c(Cl)c2-n2c(C(=O)c3ccc(SCC(=O)OCC)cc3O)cc(Cl)c2Cl)c(O)c1 [compound 31],,little activity in intact cells,
"CCOC(=O)Cn1cc(-c2ccc(C(=O)c3[nH]c(Cl)c(Cl)c3-n3c(C(=O)c4ccc(-c5cn(CC(=O)OCC)nn5)cc4O)cc(Cl)c3Cl)c(O)c2)nn1 [compound 43, Diethyl 2,2′-(4,4′-((4,4′,5,5′-tetrachloro-1′H-1,3′-bipyrrole-2,2′-dicarbonyl)bis(3-hydroxy-4,1-phenylene))bis(1H-1,2,3-triazole-4,1-diyl))diacetate]",18.4 ± 0.3 µM,,
"CCOC(=O)Cn1cc(-c2cc(O)c(C(=O)c3[nH]c(Cl)c(Cl)c3-n3c(C(=O)c4cc(Cl)c(-c5cn(CC(=O)OCC)nn5)cc4O)cc(Cl)c3Cl)cc2Cl)nn1 [compound 36, Diethyl 2,2′-(4,4′-((4,4′,5,5′-tetrachloro-1′H-1,3′-bipyrrole-2,2′-dicarbonyl)bis(2-chloro-5-hydroxy-4,1-phenylene))bis(1H-1,2,3-triazole-4,1-diyl))diacetate]",7.8 ± 1.5 µM,,
O=C(c1ccccc1O)c1[nH]c(Cl)c(Cl)c1-n1c(C(=O)c2cc(Cl)ccc2O)cc(Cl)c1Cl [compound 48],,not active in intact cells,
O=C(c1ccc(SCc2ccccc2)cc1O)c1[nH]c(Cl)c(Cl)c1-n1c(C(=O)c2ccc(SCc3ccccc3)cc2O)cc(Cl)c1Cl [compound 32],,little activity in intact cells,
O=C(c1cc(Cl)c(O)cc1O)c1[nH]c(Cl)c(Cl)c1-n1c(C(=O)c2cc(Cl)c(O)cc2O)cc(Cl)c1Cl [compound 30],,,decrease of Mcl-1 levels and caspase 3 cleavage [3]: inactive at decreasing Mcl-1 levels and at inducing caspase 3 cleavage
COc1ccc(CSc2ccc(C(=O)c3[nH]c(Cl)c(Cl)c3-n3c(C(=O)c4ccc(SCc5ccc(OC)cc5)cc4O)cc(Cl)c3Cl)c(O)c2)cc1 [compound 33],,little activity in intact cells,
"C#Cc1ccc(C(=O)c2[nH]c(Cl)c(Cl)c2-n2c(C(=O)c3ccc(C#C)cc3O)cc(Cl)c2Cl)c(O)c1 [compound 25, (4,4′,5,5′-Tetrachloro-1′H-1,3′-bipyrrole-2,2′-diyl)bis((4-ethynyl-2-hydroxyphenyl)methanone)]",3.9 ± 0.2 µM,,IC50 [2]: 5.6 ± 0.5 µM
